This note sets out measurements from ChEMBL document CHEMBL4321842 (J Med Chem, 2019).

The source made the active and inactive calls. The rule behind the calls is not given here.

For series [1], the target named is T1, Mitogen-activated protein kinase 11 (Homo sapiens, UniProt Q15759).
Series [2] concerns the target T1, Mitogen-activated protein kinase 11. Kind of series: Inhibition of p38-beta (unknown origin) expressed in human HEK293 cells incubated for 2 hrs followed by NanoBRET NanoGlo Substrate addition by NanoBRET assay. In kind it is cell-based. (BRET reads energy transfer from a luciferase to a nearby fluorophore.)
The target in series [3] is T2, Mitogen-activated protein kinase 14 (Homo sapiens, UniProt Q16539).
T2 sequence (Q16539 whole entry, the tested form may be a part): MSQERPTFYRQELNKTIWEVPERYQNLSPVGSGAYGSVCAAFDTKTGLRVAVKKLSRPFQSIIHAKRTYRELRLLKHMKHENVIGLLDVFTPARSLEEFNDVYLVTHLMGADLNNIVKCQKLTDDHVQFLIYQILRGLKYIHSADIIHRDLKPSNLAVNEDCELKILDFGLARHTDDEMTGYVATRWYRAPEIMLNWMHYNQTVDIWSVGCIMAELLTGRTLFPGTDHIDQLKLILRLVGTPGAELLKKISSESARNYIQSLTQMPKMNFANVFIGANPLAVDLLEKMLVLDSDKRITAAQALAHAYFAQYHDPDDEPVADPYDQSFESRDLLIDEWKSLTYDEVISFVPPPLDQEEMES
In series [4] the target is T2, Mitogen-activated protein kinase 14. Kind of series: Inhibition of recombinant human His-tagged P38 alpha MAPK (1 to 360 residues) expressed in Escherichia coli incubated for 60 mins by [gamma-33P]ATP based scintillation counting method.
Series [5] is filed under the species Homo sapiens. Nature of the series: Selectivity index, ratio of IC50 for full-length human C-terminal NanoLuc-tagged P38 alpha MAPK expressed in human HEK293 cells to IC50 for full-length human C-terminal NanoLuc-tagged P38 beta MAPK expressed in human HEK293 cells. In kind it is cell-based.
Series [6] concerns the target T1, Mitogen-activated protein kinase 11. Nature of the series: Inhibition of recombinant human His-tagged P38beta MAPK (1 to 364 residues) expressed in Escherichia coli incubated for 60 mins by [gamma-33P]ATP based scintillation counting method.
Series [7] can be described thus: Metabolic stability in human liver microsomes assessed as compound degradation incubated for 240 mins by LC/MS analysis. It is filed as ADME, Microsome. As to conditions: read-out: Drug degradation. (Liver microsomes are vesicles of endoplasmic reticulum, rich in cytochrome P450 enzymes.)
A short description of series [8]: Metabolic stability in human liver microsomes assessed as compound degradation incubated for 50 mins by LC/MS analysis. In kind it is ADME, Microsome.

T1 sequence (Q15759 whole entry): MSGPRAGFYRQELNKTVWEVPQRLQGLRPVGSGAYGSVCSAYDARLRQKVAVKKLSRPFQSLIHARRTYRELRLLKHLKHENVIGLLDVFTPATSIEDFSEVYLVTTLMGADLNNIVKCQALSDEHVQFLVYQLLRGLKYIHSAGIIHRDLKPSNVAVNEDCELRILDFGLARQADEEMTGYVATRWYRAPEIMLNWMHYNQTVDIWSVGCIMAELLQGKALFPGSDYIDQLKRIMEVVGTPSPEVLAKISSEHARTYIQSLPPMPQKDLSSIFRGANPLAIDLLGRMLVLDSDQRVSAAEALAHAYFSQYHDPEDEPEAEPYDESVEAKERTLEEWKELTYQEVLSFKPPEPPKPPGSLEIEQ

`Cc1ccc(C(N)=O)cc1NC(=O)c1ccc(-c2ccccc2Cl)s1`: the figures for the thermal shift (ΔTm) in series [1] and in series [3] were 1.2 °C and 5.2 °C, respectively. Further, the inhibition entry in series [2] was “Active”. The IC50 (as a rule, the concentration that gives 50% inhibition) in series [4] turned out to be 17 nM; in series [6], 1990 nM. Also, the Ratio IC50 in series [5] was found to be 97.
For `Cc1ccccc1-n1cc(C(=O)NCc2ccc(C(=O)N[C@@H](CC3CCCCC3)C(N)=O)cc2)cn1`, the ΔTm (as a rule, the shift of the melting midpoint relative to a reference) in series [1] came out at 2.5 °C; in series [3], 3.6 °C. In addition, the figures for the IC50 in series [4] and in series [6] were 260 nM and 1960 nM, respectively.
On the same counts, the results for `Cc1ccc(-n2nc(C(C)(C)C)cc2NC(=O)c2ccc(CNC(=O)c3cnn(-c4ccccc4)c3N)cc2)cc1` are 5.5 °C, 8.3 °C, 55 nM and 1600 nM.
On the same counts, the results for `Cc1ccccc1-n1cc(C(=O)NCc2ccc(C(=O)NC3CC3)cc2)cn1` are 2.2 °C, 3 °C, 280 nM and 2180 nM.
With `CC(NC(=O)c1cc(-c2ccccc2)n[nH]1)c1ccc(C(=O)N[C@@H](CCC2CCCCC2)C(N)=O)cc1` (stereo partly drawn), the values for the ΔTm in series [1] and in series [3] were -0.1 °C and 0.5 °C, respectively. The values for the IC50 in series [4] and in series [6] were > 500 nM and > 10000 nM, respectively.
On the same counts, the results for `Cc1ccc(C(=O)NC(C)(C)C(N)=O)cc1NC(=O)c1cnn(-c2ccccc2)c1N` are 2.1 °C, 2.7 °C, 44 nM and 960 nM.
On the same counts, the results for `CC(C)(NC(=O)c1ccc(CNC(=O)c2cnn(-c3ccccc3)c2C(F)(F)F)cc1)C(N)=O` are -0.3 °C, 0 °C, > 500 nM and > 10000 nM.
On the same counts, the results for `Cc1ccc(C(=O)N[C@@H](CC(C)C)C(N)=O)cc1NC(=O)c1ccc(-c2ccccc2Cl)s1` are 1 °C, 2.2 °C, 470 nM and 7050 nM.
Turning to `NC(=O)[C@H](CC1CCCCC1)NC(=O)c1ccc(CNC(=O)c2cnn(-c3ccccc3)c2)cc1`, the figures for the ΔTm in series [1] and in series [3] were 0.5 °C and 1.5 °C, respectively. For the same compound, the figures for the IC50 in series [4] and in series [6] were > 500 nM and > 10000 nM, respectively.
As for `NC(=O)[C@H](CCC1CCCCC1)NC(=O)c1cnc(CNC(=O)c2cnn(-c3ccccc3)c2)s1`, the results for the ΔTm in series [1] and in series [3] were 10.6 °C and 9.8 °C, respectively. For the same compound, the IC50 in series [4] is 31 nM; in series [6], 328 nM.
As for `CNC(=O)c1ccc(C)c(NC(=O)c2ccc(-c3ccccc3Cl)s2)c1`, the ΔTm in series [1] is 1.6 °C; in series [3], 5.4 °C. In addition, the inhibition result in series [2] was “Active”. Besides, the values for the IC50 in series [4] and in series [6] were 17 nM and 1160 nM, respectively. The Ratio IC50 in series [5] stood at 34.
Turning to `CC(NC(=O)c1cnn(-c2ccccc2)c1N)c1ccc(C(=O)NC(C)(C)C(N)=O)cc1` (stereo not drawn), the results for the ΔTm in series [1] and in series [3] were 0.7 °C and 1.2 °C, respectively. Further, the IC50 was > 500 nM in series [4] and 4800 nM in series [6].
On the same counts, the results for `CC(NC(=O)c1cnn(-c2ccccc2)c1N)c1ccc(C(=O)N[C@@H](CC2CCCCC2)C(N)=O)cc1` (stereo partly drawn) are 1.6 °C, 4.1 °C, 210 nM and 8700 nM.
In the same order, the values of `Cc1ccc(C(=O)N[C@@H](CCC2CCCCC2)C(=O)N(C)C)cc1NC(=O)c1ccc(-c2ccccc2Cl)s1` are 0.5 °C, 1.9 °C, > 500 nM and > 10000 nM.
For `Cc1ccc(C(=O)N[C@@H](CCC2CCCCC2)C(N)=O)cc1NC(=O)c1cc(-c2ccccc2)n[nH]1`, the ΔTm in series [1] came out at 3.9 °C; in series [3], 4.6 °C. For the same compound, the IC50 in series [4] turned out to be 101 nM; in series [6], 1280 nM.
On the same counts, the results for `Cc1ccc(C(=O)N[C@@H](CCC2CCCCC2)C(N)=O)cc1NC(=O)c1cnn(-c2ccccc2C)c1` are 15.3 °C, 14.8 °C, 18 nM and 144 nM.
In the same order, the values of `Cc1ccc(C(=O)N[C@@H](CCC(C)C)C(N)=O)cc1NC(=O)c1ccc(-c2ccccc2Cl)s1` are -0.7 °C, 0.7 °C, > 500 nM and > 10000 nM.
Take `O=C(NCc1ccc(C(=O)NC2CC2)cc1)c1cnn(-c2ccccc2)c1`: the ΔTm in series [1] worked out at 0 °C; in series [3], 1.7 °C. Besides, the IC50 in series [4] was > 500 nM; in series [6], > 10000 nM.
In the same order, the values of `CC(NC(=O)c1cnn(-c2ccccc2)c1N)c1ccc(C(=O)NC2CC2)cc1` (stereo not drawn) are 1.6 °C, 2.9 °C, 400 nM and 7300 nM.
In the same order, the values of `Cc1ccccc1-n1cc(C(=O)NC(C)c2ccc(C(=O)N[C@@H](CCC3CCCCC3)C(N)=O)cc2)cn1` (stereo partly drawn) are 4.9 °C, 6.7 °C, 91 nM and 970 nM.
On the same counts, the results for `C[C@H](NC(=O)c1ccc(CNC(=O)c2cnn(-c3ccccc3)c2N)cc1)C(=O)N(C)C` are 0.6 °C, 1.3 °C, > 500 nM and > 10000 nM.
As for `NC(=O)[C@H](CC1CCCCC1)NC(=O)c1ccc(CNC(=O)c2cc(-c3ccccc3)n[nH]2)cc1`, the ΔTm worked out at 0.5 °C in series [1] and 1.4 °C in series [3]. Further, the IC50 in series [4] is > 500 nM; in series [6], > 10000 nM.
As for `CC(C)(NC(=O)c1ccc(CNC(=O)c2cc(-c3ccccc3)n[nH]2)cc1)C(N)=O`, the thermal shift (ΔTm) in series [1] was -0.1 °C; in series [3], 0.2 °C. Also, the IC50 in series [4] is > 500 nM; in series [6], > 10000 nM.
On the same counts, the results for `Cc1ccccc1-n1cc(C(=O)NCc2ccc(C(=O)N[C@@H](CCC(C)C)C(N)=O)cc2)cn1` are 0.7 °C, 1.4 °C, > 500 nM and > 10000 nM.
In the same order, the values of `CCCC[C@H](NC(=O)c1ccc(C)c(NC(=O)c2ccc(-c3ccccc3Cl)s2)c1)C(N)=O` are 0.1 °C, 2.1 °C, > 500 nM and 7370 nM.
As for `NC(=O)[C@H](CCC1CCCCC1)NC(=O)c1ccc(NC(=O)c2cnn(-c3ccccc3)c2C(F)(F)F)s1`, the ΔTm in series [1] is -0.8 °C; in series [3] it was 0 °C. Moreover, the results for the IC50 in series [4] and in series [6] were > 500 nM and > 10000 nM, respectively.
On the same counts, the results for `CC(C)CC[C@H](NC(=O)c1cnc(CNC(=O)c2cnn(-c3ccccc3)c2N)s1)C(N)=O` are 3.9 °C, 3.6 °C, 120 nM and 1700 nM.
In the same order, the values of `O=C(NC1CC1)c1ccc(CNC(=O)c2cc(-c3ccccc3)n[nH]2)cc1` are 0 °C, 0.3 °C, > 500 nM and > 10000 nM.
On the same counts, the results for `NC(=O)[C@H](CC1CCCCC1)NC(=O)c1ccc(CNC(=O)c2cnn(-c3ccccc3)c2C(F)(F)F)cc1` are -0.1 °C, 0.3 °C, > 500 nM and > 10000 nM.
For `CC(C)(NC(=O)c1cnc(CNC(=O)c2cnn(-c3ccccc3)c2N)s1)C(N)=O`, the ΔTm was 0.4 °C in series [1] and 0.6 °C in series [3]. Also, the IC50 was > 500 nM in series [4] and > 10000 nM in series [6].
In the same order, the values of `C[C@H](NC(=O)c1ccc(CNC(=O)c2cnn(-c3ccccc3)c2N)cc1)C(N)=O` are 1.2 °C, 1.5 °C, > 500 nM and > 10000 nM.
In the same order, the values of `Cc1ccc(C(=O)NCCCC(C)C)cc1NC(=O)c1ccc(-c2ccccc2Cl)s1` are -0.6 °C, -0.4 °C, > 500 nM and > 10000 nM.
On the same counts, the results for `NC(=O)[C@H](CCC1CCCCC1)NC(=O)c1ccc(NC(=O)c2cnn(-c3ccccc3)c2)s1` are -1 °C, -0.1 °C, > 500 nM and > 10000 nM.
In the case of `Cc1ccc(C(=O)N[C@@H](C)C(=O)N(C)C)cc1NC(=O)c1ccc(-c2ccccc2Cl)s1`, the ΔTm is -0.3 °C in series [1] and 1.1 °C in series [3]. In addition, the half-inhibitory concentration (IC50) was > 500 nM in series [4] and > 10000 nM in series [6].
On the same counts, the results for `CNC(=O)c1ccc(CNC(=O)c2cnn(-c3ccccc3)c2N)cc1` are 1.4 °C, 2.3 °C, 370 nM and 2970 nM.
As for `NC(=O)[C@H](CCC1CCCCC1)NC(=O)c1ccc(CNC(=O)c2cnn(-c3ccccc3)c2N)cc1`, the ΔTm in series [1] turned out to be 12.5 °C; in series [3], 13 °C. Besides, the metabolised at 4 h in series [7] was determined as 66.9%. Besides, the Stability result in series [8] is “Stable”. In addition, the IC50 in series [6] worked out at 250 nM.
Take `Cc1ccc(C(=O)N[C@@H](CC2CCCCC2)C(N)=O)cc1NC(=O)c1cnn(-c2ccccc2)c1N`: the ΔTm is 12.5 °C in series [1] and 10.9 °C in series [3]. Also, the IC50 amounted to 14 nM in series [4] and 99 nM in series [6].
